Assay: xn = mol fraction of the nth substance listed
Conditions: Fluid (supercritical or subcritical phases), Vibrating tube method

CC1=C(/C=C/C(C)=C/C=C/C(C)=C/C=C/C=C(C)/C=C/C=C(C)/C=C/C2=C(C)CCCC2(C)C)C(C)(C)CCC1 [β-carotene] + O=C=O
mass density [kg/m3]
Conditions | x1 = 1.5e-06 | x1 = 2.2e-06 | x1 = 2.9e-06 | x1 = 4.3e-06 | x1 = 4.8e-06 | x1 = 5.5e-06 | x1 = 6.5e-06
308.15 K, 10000 kPa | 717.5 | 717.7 | 717.9 | 717.6 | 717.8 | 718.3 | 717.8
308.15 K, 15000 kPa | 816.3 | 816.4 | 816.5 | 816.4 | 816.4 | 816.7 | 816.4
308.15 K, 20000 kPa | 866.3 | 866.3 | 866.3 | 866.4 | 866.4 | 866.5 | 866.4
308.15 K, 30000 kPa | 929.1 | 929.1 | 929.1 | 929.1 | 929.3 | 929.2 | 929.1
308.15 K, 40000 kPa | 971.8 | 971.9 | 971.9 | 971.9 | 972 | 972 | 971.9
313.15 K, 10000 kPa | 636.7 | 637.3 | 637.2 | 637.2 | 637.7 | 637.8 | 637.3
313.15 K, 15000 kPa | 781.5 | 781.6 | 781.6 | 781.6 | 781.8 | 781.9 | 781.6
313.15 K, 20000 kPa | 840.4 | 840.4 | 840.4 | 840.4 | 840.6 | 840.7 | 840.4
313.15 K, 30000 kPa | 909.9 | 909.9 | 909.9 | 909.9 | 910 | 910.1 | 909.9
313.15 K, 40000 kPa | 955.7 | 955.7 | 955.7 | 955.7 | 955.8 | 955.9 | 955.7
323.15 K, 10000 kPa | 398.3 | 397.9 | 398.9 | 398.2 | 398.4 | 398.5 | 398.2
323.15 K, 15000 kPa | 702 | 701.8 | 702.1 | 702 | 702.1 | 702.2 | 702
323.15 K, 20000 kPa | 785 | 784.9 | 785.1 | 785 | 785.2 | 785.3 | 785
323.15 K, 30000 kPa | 870.5 | 870.5 | 870.5 | 870.5 | 870.6 | 870.7 | 870.5
323.15 K, 40000 kPa | 922.9 | 923 | 923 | 923 | 923 | 923.1 | 923
333.15 K, 10000 kPa | 296.5 | 297.2 | 296.7 | 296.6 | 296.9 | 297 | 296.6
333.15 K, 15000 kPa | 607.3 | 607.7 | 607.7 | 607.4 | 607.7 | 607.8 | 607.4
333.15 K, 20000 kPa | 724.5 | 724.7 | 724.7 | 724.7 | 724.7 | 725 | 724.6
333.15 K, 30000 kPa | 829.7 | 829.7 | 829.7 | 829.7 | 829.8 | 829.9 | 829.7
333.15 K, 40000 kPa | 889.8 | 889.8 | 889.9 | 889.9 | 890 | 890 | 889.9
